Test results: patent US8791140B2, “Crystalline forms of 6-[2-(methylcarbamoyl)phenylsulfanyl]-3-E-[2-(pyridin-2-yl)ethenyondazole suitable for the treatment of abnormal cell growth in mammals” (Pfizer Inc., priority 2007, dated 2014)

Details: solid, 1X ICH Option 1 light exposure, Atlas Suntest XLS+ light box, 320 nm cutoff filter
Procedure: A photochemical comparative study of Form XLI, Form XXV, and Form IV was performed.
Approximately 50 mg of each form was placed in 20 ml glass vials. The sample depth was <3 mm. The vials were covered with a quartz glass dish and placed in an Atlas Suntest XLS+ light box equipped with a 320 nm cutoff filter. […] The samples were exposed to artificial light equivalent to the International Conference on Harmonization (ICH) Guidelines for Photostability Testing of New Drug Substances, Option 1 exposure.

Row | SMILES | Potency (wt/wt %) after light exposure [%]
1 | CNC(=O)c1ccccc1Sc1ccc2c(/C=C/c3ccccn3)n[nH]c2c1 [Form XXV, 6-[2-(methylcarbamoyl)phenylsulfanyl]-3-E-[2-(pyridin-2-yl)ethenyl]indazole] | 100
2 | CNC(=O)c1ccccc1Sc1ccc2c(/C=C/c3ccccn3)n[nH]c2c1 [Form IV, 6-[2-(methylcarbamoyl)phenylsulfanyl]-3-E-[2-(pyridin-2-yl)ethenyl]indazole] | 34
3 | CNC(=O)c1ccccc1Sc1ccc2c(/C=C/c3ccccn3)n[nH]c2c1 [Form XLI, 6-[2-(methylcarbamoyl)phenylsulfanyl]-3-E-[2-(pyridin-2-yl)ethenyl]indazole] | 89
